Laboratory results: US8546389B2 (priority 2010, dated 2013)

Legend:
[1] = test system: genotype 1b (Con 1) subgenomic replicon cell line; test: HCV replicon assay, genotype 1b (Renilla luciferase); assay type: cell-based, HCV genotype 1b (Con 1); conditions: Hepatitis C virus; genotype 1b replicon, 72 hours, luciferase; read-out: genotype 1b EC50 (range class)
In short: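 Subgenomic replicon cells expressing Renilla luciferase (1b Con1; 1a and 2a lines by the same method) seeded at 7000 cells/well (5000 for 2a) without G418, exposed to 3-fold compound dilutions for 72 h at 37 °C. Luciferase activity measured; EC50 by non-linear regression.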

[2] = target: 1b (BK) NS5bΔ21 (Hepatitis C virus genotype 1b (isolate BK) (HCV), UniProt P26663); test: HCV polymerase inhibition assay, genotype 1b; assay type: biochemical, HCV genotype 1b (BK); conditions: 1b (BK) NS5bΔ21, 33P-GTP incorporation; read-out: 1b polymerase IC50 (range class)
In short: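 Both genotype 1b and 3a enzymes assayed identically: ^33P-GTP incorporation on poly(rC) template, GTP at Km, 50 nM NS5bΔ21, pH 7.5 Tris with 5 mM MgCl2 and MnCl2, 1 h reaction ended by cold EDTA. Filter-bound label counted; IC50 fitted by non-linear regression across three-fold dilution series.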

Chain of 1b (BK) NS5bΔ21 (P26663 2420-2989): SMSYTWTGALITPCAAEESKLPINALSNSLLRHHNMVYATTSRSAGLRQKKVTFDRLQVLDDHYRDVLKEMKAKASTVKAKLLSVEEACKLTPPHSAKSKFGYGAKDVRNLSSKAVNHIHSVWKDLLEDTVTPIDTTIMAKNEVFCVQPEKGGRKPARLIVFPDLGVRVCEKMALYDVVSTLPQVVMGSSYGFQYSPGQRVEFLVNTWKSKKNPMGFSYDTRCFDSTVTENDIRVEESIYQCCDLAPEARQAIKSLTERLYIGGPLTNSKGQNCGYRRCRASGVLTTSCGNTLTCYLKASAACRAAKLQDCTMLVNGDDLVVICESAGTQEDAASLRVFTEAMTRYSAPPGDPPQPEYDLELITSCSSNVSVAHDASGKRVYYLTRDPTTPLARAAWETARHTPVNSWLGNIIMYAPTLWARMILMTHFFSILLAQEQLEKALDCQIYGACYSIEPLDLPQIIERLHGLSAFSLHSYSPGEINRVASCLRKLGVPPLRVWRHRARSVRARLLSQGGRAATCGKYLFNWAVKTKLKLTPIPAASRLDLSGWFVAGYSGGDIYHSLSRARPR

| Structure (SMILES) | EC50 [1] [nM] | IC50 [2] [nM] |
| --- | --- | --- |
| CNC(=O)CCCN(c1cc2nn(-c3ccc(Br)cc3)c(C(=O)NC)c2cc1C1CC1)S(C)(=O)=O [Compound 143] | 1000 to 9990 | < 990 |
| CC=Cc1cc2c(C(=O)NC)n(-c3ccc(F)cc3)nc2cc1N(CC)S(C)(=O)=O [Compound 144] | 1000 to 9990 | 1000 to 9990 |
| CCCc1cc2c(C(=O)NC)n(-c3ccc(F)cc3)nc2cc1N(CC)S(C)(=O)=O [Compound 145] | 1000 to 9990 | 1000 to 9990 |
| CNC(=O)c1c2cc(C3CC3)c(N(CCCNC(=O)c3ccccc3C(=O)O)S(C)(=O)=O)cc2nn1-c1ccc(NCC(C)C)cc1 [Compound 146] | 1000 to 9990 | < 990 |
| CNC(=O)c1c2cc(C3CC3)c(N(CCCNC(=O)c3ccccc3C(=O)O)S(C)(=O)=O)cc2nn1-c1ccc(Br)cc1 [Compound 147] | 1000 to 9990 | < 990 |
| CNC(=O)CCN(c1cc2nn(-c3ccc(Br)cc3)c(C(=O)NC)c2cc1C1CC1)S(C)(=O)=O [Compound 148] | 1000 to 9990 | < 990 |
| CCN(c1cc2nn(-c3ccc(F)cc3)c(C(=O)NC)c2cc1C#CC(C)(C)O)S(C)(=O)=O [Compound 149] | 10000 to 50000 | < 990 |
| CNC(=O)c1c2cc(C3CC3)c(N(CCC(=O)NS(=O)(=O)c3ccccc3)S(C)(=O)=O)cc2nn1-c1ccc(Br)cc1 [Compound 150] | 10000 to 50000 | < 990 |
| CNC(=O)c1ccccc1C(=O)NCCCN(c1cc2nn(-c3ccc(Br)cc3)c(C(=O)NC)c2cc1C1CC1)S(C)(=O)=O [Compound 151] | 1000 to 9990 | < 990 |
| CNC(=O)CCC(=O)NCCCN(c1cc2nn(-c3ccc(Br)cc3)c(C(=O)NC)c2cc1C1CC1)S(C)(=O)=O [Compound 152] | 10000 to 50000 | < 990 |
| CNC(=O)c1c2cc(C3CC3)c(N(CCC(=O)NS(=O)(=O)c3cccs3)S(C)(=O)=O)cc2nn1-c1ccc(Br)cc1 [Compound 153] | 10000 to 50000 | < 990 |
| CNC(=O)c1c2cc(C3CC3)c(N(CCC(=O)NS(=O)(=O)c3ccc(F)cc3)S(C)(=O)=O)cc2nn1-c1ccc(Br)cc1 [Compound 154] | 10000 to 50000 | < 990 |
| CNC(=O)c1c2cc(C3CC3)c(N(CCC(=O)N(C)C)S(C)(=O)=O)cc2nn1-c1ccc(Br)cc1 [Compound 155] | 1000 to 9990 | < 990 |
| CNC(=O)c1c2cc(C3CC3)c(-c3nccn3C)cc2nn1-c1ccc(F)cc1 [Compound 157] | 10000 to 50000 | 1000 to 9990 |
| CNC(=O)c1c2cc(C3CC3)c(N(CCCNC(=O)CCOC)S(C)(=O)=O)cc2nn1-c1ccc(Br)cc1 [Compound 161] | < 990 | < 990 |
| CCNC(=O)CCN(c1cc2nn(-c3ccc(Br)cc3)c(C(=O)NC)c2cc1C1CC1)S(C)(=O)=O [Compound 162] | 1000 to 9990 | 1000 to 9990 |
| CCN(c1cc2nn(-c3ccc(F)cc3)c(C(=O)NC)c2cc1-c1csc(C)n1)S(C)(=O)=O [Compound 163] | 1000 to 9990 | 10000 to 50000 |
| CCCNC(=O)CCN(c1cc2nn(-c3ccc(Br)cc3)c(C(=O)NC)c2cc1C1CC1)S(C)(=O)=O [Compound 165] | 1000 to 9990 | 1000 to 9990 |
| CNC(=O)c1c2cc(C3CC3)c(N(CCCNC(=O)c3cn(C)cn3)S(C)(=O)=O)cc2nn1-c1ccc(Br)cc1 [Compound 167] | < 990 | < 990 |
| CNC(=O)c1c2cc(C3CC3)c(N(CCCNC(=O)c3cnoc3)S(C)(=O)=O)cc2nn1-c1ccc(Br)cc1 [Compound 168] | < 990 | < 990 |
| CNC(=O)c1c2cc(C3CC3)c(N(CCCN3C(=O)c4ccccc4C3=O)S(C)(=O)=O)cc2nn1-c1ccc(Br)cc1 [Compound 169] | < 990 | < 990 |
| CCN(c1cc2nn(-c3ccc(F)cc3)c(C(=O)NC)c2cc1OCC#N)S(C)(=O)=O [Compound 170] | < 990 | < 990 |
| CNC(=O)c1c2cc(C3CC3)c(N(CCCNC(=O)c3cnoc3C)S(C)(=O)=O)cc2nn1-c1ccc(Br)cc1 [Compound 173] | < 990 | < 990 |

| Structure (SMILES) | EC50 [1] [nM] | IC50 [2] [nM] |
| --- | --- | --- |
| CNC(=O)c1c2cc(C3CC3)c(N(CCCNC(=O)c3ccnnc3)S(C)(=O)=O)cc2nn1-c1ccc(Br)cc1 [Compound 178] | 1000 to 9990 | < 990 |
| CNC(=O)c1c2cc(C3CC3)c(N(CCCNC(=O)c3ccco3)S(C)(=O)=O)cc2nn1-c1ccc(Br)cc1 [Compound 181] | < 990 | < 990 |
| CNC(=O)c1c2cc(C3CC3)c(N(CCCNC(=O)C3CC3)S(C)(=O)=O)cc2nn1-c1ccc(Br)cc1 [Compound 183] | < 990 | < 990 |
| CCNC(=O)CCCN(c1cc2nn(-c3ccc(Br)cc3)c(C(=O)NC)c2cc1C1CC1)S(C)(=O)=O [Compound 184] | 1000 to 9990 | < 990 |
| CNC(=O)c1c2cc(C3CC3)c(N(CCCNC(=O)CCN(C)C)S(C)(=O)=O)cc2nn1-c1ccc(Br)cc1 [Compound 185] | 1000 to 9990 | 1000 to 9990 |
| CNC(=O)c1c2cc(C3CC3)c(N(CCCNC(=O)c3ccc(N4CCOCC4)nc3)S(C)(=O)=O)cc2nn1-c1ccc(Br)cc1 [Compound 186] | < 990 | < 990 |
| CNC(=O)c1c2cc(C3CC3)c(N(CCCNC(=O)[C@H]3CCCC[C@@H]3C(=O)O)S(C)(=O)=O)cc2nn1-c1ccc(Br)cc1 [Compound 187] | 1000 to 9990 | < 990 |
| CNC(=O)c1c2cc(C3CC3)c(N(CCCNC(=O)[C@H]3CC=CC[C@H]3C(=O)O)S(C)(=O)=O)cc2nn1-c1ccc(Br)cc1 [Compound 188] | < 990 | < 990 |
| C=C(C)c1ccc(-n2nc3cc(N(CC)S(C)(=O)=O)c(C4CC4)cc3c2C(=O)NC)cc1 [Compound 192] | < 990 | 1000 to 9990 |
| CCS(=O)(=O)NC(=O)CCCN(c1cc2nn(-c3ccc(Br)cc3)c(C(=O)NC)c2cc1C1CC1)S(C)(=O)=O [Compound 193] | 1000 to 9990 | < 990 |
| CNC(=O)c1c2cc(C3CC3)c(N(CCCN3CCCC3=O)S(C)(=O)=O)cc2nn1-c1ccc(Br)cc1 [Compound 194] | < 990 | < 990 |
| CNC(=O)c1c2cc(C3CC3)c(N(CCCC(=O)NS(=O)(=O)C(F)(F)F)S(C)(=O)=O)cc2nn1-c1ccc(Br)cc1 [Compound 196] | 1000 to 9990 | < 990 |
| CNC(=O)c1c2cc(C3CC3)c(N(CCCNC(=O)c3ccccc3)S(C)(=O)=O)cc2nn1-c1ccc(Cl)cc1 [Compound 197] | < 990 | < 990 |
| CNC(=O)c1c2cc(C3CC3)c(N(CCCC(=O)NS(=O)(=O)N(C)C)S(C)(=O)=O)cc2nn1-c1ccc(Br)cc1 [Compound 198] | 1000 to 9990 | < 990 |
| CNC(=O)c1c2cc(C3CC3)c(N(CCCN(C)C)S(C)(=O)=O)cc2nn1-c1ccc(Cl)cc1 [Compound 199] | < 990 | 1000 to 9990 |
| CNC(=O)c1c2cc(C3CC3)c(N(CCCN3CCOCC3)S(C)(=O)=O)cc2nn1-c1ccc(Cl)cc1 [Compound 201] | < 990 | < 990 |
| CNC(=O)c1c2cc(C3CC3)c(N(CC3COC(C)(C)OC3)S(C)(=O)=O)cc2nn1-c1ccc(Br)cc1 [Compound 202] | < 990 | < 990 |
| CNC(=O)c1c2cc(C3CC3)c(N(CC(CO)CO)S(C)(=O)=O)cc2nn1-c1ccc(Br)cc1 [Compound 203] | 10000 to 50000 | 10000 to 50000 |
| CNC(=O)c1c2cc(C3CC3)c(N(CCCNC(=O)[C@H]3C[C@H]3C(=O)OC)S(C)(=O)=O)cc2nn1-c1ccc(Br)cc1 [Compound 204] | < 990 | < 990 |
| CNC(=O)c1c2cc(C3CC3)c(N(CCCNC(=O)[C@H]3COCCN3C)S(C)(=O)=O)cc2nn1-c1ccc(Cl)cc1 [Compound 205] | < 990 | < 990 |
| CNC(=O)c1c2cc(C3CC3)c(N(CCCO)S(C)(=O)=O)cc2nn1-c1ccc(C)c(F)c1 [Compound 206] | < 990 | < 990 |
| CNC(=O)c1c2cc(C3CC3)c(N(CCCC(=O)OC)S(C)(=O)=O)cc2nn1-c1ccc(Cl)cc1 [Compound 207] | 1000 to 9990 | < 990 |
| CNC(=O)c1c2cc(C3CC3)c(N(CCCC(=O)O)S(C)(=O)=O)cc2nn1-c1ccc(Cl)cc1 [Compound 208] | 10000 to 50000 | < 990 |
